How the values were obtained:
Format in all cases: biochemical
[1] = molecular target: T1, recombinant human PKG1-beta (Homo sapiens, UniProt Q13976); assay: Determination of Protein Kinase G inhibition (selectivity); details: from IC50 values
T1 construct: PKG1-beta (full-length, with N-terminal His-tag); His-tag (N); purchased Millipore GmbH, Schwalbach, Germany
T1 sequence (Q13976 1-686 isoform Q13976-2): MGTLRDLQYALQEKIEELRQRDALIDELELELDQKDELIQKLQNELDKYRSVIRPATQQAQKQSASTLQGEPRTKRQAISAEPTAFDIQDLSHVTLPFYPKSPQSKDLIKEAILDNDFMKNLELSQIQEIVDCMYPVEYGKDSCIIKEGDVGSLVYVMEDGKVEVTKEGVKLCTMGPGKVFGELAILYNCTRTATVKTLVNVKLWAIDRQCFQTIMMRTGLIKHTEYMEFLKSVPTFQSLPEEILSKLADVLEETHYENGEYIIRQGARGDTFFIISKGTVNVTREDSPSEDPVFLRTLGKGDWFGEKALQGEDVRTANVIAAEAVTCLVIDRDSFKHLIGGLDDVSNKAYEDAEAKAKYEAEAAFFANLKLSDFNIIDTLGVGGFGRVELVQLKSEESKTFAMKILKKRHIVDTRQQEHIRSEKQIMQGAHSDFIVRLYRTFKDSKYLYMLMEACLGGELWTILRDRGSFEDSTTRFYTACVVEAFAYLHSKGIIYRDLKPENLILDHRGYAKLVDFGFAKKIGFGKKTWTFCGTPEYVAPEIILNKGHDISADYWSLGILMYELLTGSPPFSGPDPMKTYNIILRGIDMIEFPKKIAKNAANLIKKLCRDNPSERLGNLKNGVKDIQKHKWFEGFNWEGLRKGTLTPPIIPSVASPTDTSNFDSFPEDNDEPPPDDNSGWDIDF
Protocol: (§1) 2) Determination of Protein Kinase a and Protein Kinase G Inhibition
(§2) To measure PKA and PKG1-beta inhibition, IC50 values were determined according to the following protocol:
(§3) Active recombinant human PKG1-beta (full-length, with N-terminal His-tag) was purchased from Millipore GmbH, Schwalbach, Germany. Active recombinant human PKA (residues 1-351, N-terminal His-tag) was obtained from Invitrogen, Karlsruhe, Germany. The peptide substrate, Fluorescein-[…]-COOH, was obtained from JPT Peptide Technologies, Berlin, Germany. Adenosine-5′-triphosphate (ATP), bovine serum albumine (BSA), dimethylsulphoxide (DMSO), 4-(2-Hydroxyethyl)piperazine-1-ethanesulfonic acid (Hepes), Brij-35, dithiothreitol (DTT) and Pluronic F-68 were purchased from Sigma-Aldrich, Munich, Germany. Tris(hydroxymethyl)-aminomethane (Tris), magnesium chloride, NaOH, 1M HCl and EDTA were obtained from Merck Biosciences, Darmstadt, Germany. “Complete” protease inhibitor was from Roche Diagnostics, Mannheim, Germany. Test compounds were diluted to the appropriate concentrations in buffer 1 (25 mM Tris-HCl, pH 7.4, 5 mM MgCl2, 2 mM DTT, 0.02% (w/v) BSA, 0.01% Pluronic F-68 and 3% DMSO). PKG1-beta and PKA were diluted to concentrations of 150 ng/ml and 30 ng/ml, respectively, in buffer 2. The peptide substrate and ATP were diluted to concentrations of 3 μM and 120 μM, respectively, in the buffer 2. Two μl of the compound solution were mixed with 2 μl of the diluted enzyme in a 384-well small volume microtiter plate (Greiner, Bio-One, Frickenhausen, Germany), and the kinase reaction was initiated by addition of 2 μl of the solution containing peptide substrate and ATP. After 60 min incubation at 32° C., the reaction was stopped by addition of 20 μl of a solution containing 100 mM Hepes-NaOH, pH 7.4, 0.015% (v/v) Brij-35, 45 mM EDTA and 0.227% chip coating reagent 1 (Caliper Lifescience Inc, Hopkinton, Mass.). Phosphorylation of the substrate peptide was then detected on a Caliper 3000 instrument essentially as described by Pommereau et al (J. Biomol. Screening 9(5), 409-416, 2004). Separation conditions were as follows: Pressure −1.3 psi, upstream voltage −1562 V, downstream voltage −500 V, sample sip time 200 ms, Positive controls (buffer 1 instead of compound) and negative controls (buffer 1 instead of compound and buffer 2 instead of kinase solution) were run in parallel on each plate. The following products/compounds were tested in said assay by using the respective form (salt or free base) obtained as in the examples described above and the following activities were measured.

[2] = molecular target: T2, human recombinant ROCK II (Homo sapiens, UniProt O75116); assay: Determination of Rho kinase inhibition (ROCK II, Caliper peptide phosphorylation assay); details: respective form (salt or free base) as obtained in the examples, 60 min at 32° C.
T2 construct: recombinant human ROCK-II residues 11-552; His6 (N); purchased Millipore GmbH, Schwalbach, Germany
Protocol: To measure Rho-kinase inhibition, IC50 values were determined according to the following protocol:
Active human recombinant ROCK II (N-terminal His6-tagged recombinant human ROCK-II residues 11-552) was purchased from Millipore GmbH, Schwalbach, Germany. The peptide substrate, Fluorescein-[…]-COOH, was obtained from JPT Peptide Technologies, Berlin, Germany. Adenosine-5′-triphosphate (ATP), bovine serum albumine (BSA), dimethylsulphoxide (DMSO), 4-(2-hydroxyethyl)piperazine-1-ethanesulfonic acid (Hepes), Brij-35, dithiothreitol (DTT) and Pluronic F-68 were purchased from Sigma-Aldrich, Munich, Germany. Tris(hydroxymethyl)-aminomethane (Tris), magnesium chloride, NaOH, 1M HCl and EDTA were obtained from Merck Biosciences, Darmstadt, Germany. “Complete” protease inhibitor was from Roche Diagnostics, Mannheim, Germany. Test compounds were diluted to the appropriate concentrations in buffer 1 (25 mM Tris-HCl, pH 7.4, 5 mM MgCl2, 2 mM DTT, 0.02% (w/v) BSA, 0.01% Pluronic F-68 and 3% DMSO). The ROCK II enzyme was diluted to a concentration of 100 ng/mL in buffer 2 (25 mM Tris-HCl, pH 7.4, 5 mM MgCl2, 2 mM DTT and 0.02% (w/v) BSA). The peptide substrate and ATP were diluted to concentrations of 3 μM and 120 μM, respectively, in the buffer 2. Two μl of the compound solution were mixed with 2 μl of the diluted enzyme in a 384-well small volume microtiter plate (Greiner, Bio-One, Frickenhausen, Germany), and the kinase reaction was initiated by addition of 2 μl of the solution containing peptide substrate and ATP. After 60 min incubation at 32° C., the reaction was stopped by addition of 20 μl of a solution containing 100 mM Hepes-NaOH, pH 7.4, 0.015% (v/v) Brij-35, 45 mM EDTA and 0.227% chip coating reagent 1 (Caliper Lifescience Inc, Hopkinton, Mass.). Phosphorylation of the substrate peptide was then detected on a Caliper 3000 instrument essentially as described by Pommereau et al (J. Biomol. Screening 2004, 9(5), 409-416). Separation conditions were as follows: Pressure −1.3 psi, upstream voltage −1562 V, downstream voltage −500 V, sample sip time 200 ms. Positive controls (buffer 1 instead of compound) and negative controls (buffer 1 instead of compound and buffer 2 instead of ROCK II) were run in parallel on each plate.
The following products/compounds were tested in said assay by using the respective form (salt or free base) obtained as in the examples described above and the following activities were measured

recombinant human PKA = molecular target: T3, recombinant human PKA (Homo sapiens, UniProt P17612); assay: Determination of Protein Kinase A inhibition (selectivity); details: from IC50 values
T3 construct: recombinant human PKA (residues 1-351, N-terminal His-tag); His-tag (N); purchased Invitrogen, Karlsruhe, Germany
Protocol: as §1, §2, §3

T2 sequence (O75116 11-552): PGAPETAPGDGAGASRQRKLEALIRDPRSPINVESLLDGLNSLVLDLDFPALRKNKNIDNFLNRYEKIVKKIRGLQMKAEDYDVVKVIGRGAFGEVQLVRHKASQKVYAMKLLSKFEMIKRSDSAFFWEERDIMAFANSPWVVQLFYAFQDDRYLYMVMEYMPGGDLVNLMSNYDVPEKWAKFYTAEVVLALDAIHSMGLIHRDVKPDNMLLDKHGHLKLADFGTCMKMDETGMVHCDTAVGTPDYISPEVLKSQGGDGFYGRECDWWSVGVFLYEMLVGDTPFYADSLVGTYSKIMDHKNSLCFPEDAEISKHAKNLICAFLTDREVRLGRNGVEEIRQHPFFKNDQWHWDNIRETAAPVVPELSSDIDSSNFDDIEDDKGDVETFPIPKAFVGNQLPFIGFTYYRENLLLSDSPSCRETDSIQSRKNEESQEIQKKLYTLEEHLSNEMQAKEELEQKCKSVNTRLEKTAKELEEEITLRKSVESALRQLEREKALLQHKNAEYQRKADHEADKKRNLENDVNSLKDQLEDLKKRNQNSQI

| Selectivity against PKG [1] [fold] | IC50 [2] [nM] | Selectivity against PKA (recombinant human PKA) [fold] | Compound |
| --- | --- | --- | --- |
| >100 | ≤ 10 | >100 | CCC(N)C1(C(C)C)CCC(Oc2cc3cc[nH]c(=O)c3cc2Cl)CC1 (single isomer, unassigned) [Example 8, 6-[4-(1-Amino-propyl)-4-isopropyl-cyclohexyloxy]-7-chloro-2H-isoquinolin-1-one] |
| >10 | 10 to 100 | >10 | CCC(N)C1(C(C)C)CCC(Oc2cc3cc[nH]c(=O)c3cc2Cl)CC1 (single isomer, unassigned) [Example 9, 6-[4-(1-Amino-propyl)-4-isopropyl-cyclohexyloxy]-7-chloro-2H-isoquinolin-1-one] |
| >300 | ≤ 10 | >1000 | CC(N)C1(CC2CC2)CCC(Oc2cc3cc[nH]c(=O)c3cc2Cl)CC1 (single isomer, unassigned) [Example 10, 6-[4-(1-Amino-ethyl)-4-cyclopropylmethyl-cyclohexyloxy]-7-chloro-2H-isoquinolin-1-one] |
| >300 | 10 to 100 | >100 | CC(N)C1(CC2CC2)CCC(Oc2cc3cc[nH]c(=O)c3cc2Cl)CC1 (single isomer, unassigned) [Example 11, 6-[4-(1-Amino-ethyl)-4-cyclopropylmethyl-cyclohexyloxy]-7-chloro-2H-isoquinolin-1-one] |
| >300 | ≤ 10 | >1000 | CCC(N)C1(CC2CC2)CCC(Oc2cc3cc[nH]c(=O)c3cc2Cl)CC1 (single isomer, unassigned) [Example 12, 6-[4-(1-Amino-propyl)-4-cyclopropyl-methyl-cyclohexyl-oxy]-7-chloro-2H-isoquinolin-1-one] |

The remaining lines, values behind:

| Compound | Selectivity against PKG [1] [fold] | IC50 [2] [nM] | Selectivity against PKA (recombinant human PKA) [fold] |
| --- | --- | --- | --- |
| CCC(N)[C@]1(C2CCOCC2)CC[C@H](Oc2cc3cc[nH]c(=O)c3cc2Cl)CC1 (mixture of isomers) [Example 1, cis-6-[4-(1-Aminopropyl)-4-(tetrahydropyran-4-yl)-cyclohexyloxy]-7-chloro-2H-isoquinolin-1-one] | >300 | ≤ 10 | >1000 |
| CCC(N)[C@]1(C2CCOCC2)CC[C@H](Oc2cc3cc[nH]c(=O)c3cc2Cl)CC1 (single isomer, unassigned) [Example 2, 6-[4-(1-Aminopropyl)-4-(tetrahydropyran-4-yl)-cyclohexyloxy]-7-chloro-2H-isoquinolin-1-one] | >1 | 100 to 1000 | >10 |
| CCC1(C(C)N)CCC(Oc2cc3cc[nH]c(=O)c3cc2Cl)CC1 (single isomer, unassigned) [Example 3, 6-[4-(1-Amino-ethyl)-4-ethyl-cyclohexyloxy]-7-chloro-2H-isoquinolin-1-one] | >1000 | ≤ 10 | >1000 |
| CCC1(C(C)N)CCC(Oc2cc3cc[nH]c(=O)c3cc2Cl)CC1 (single isomer, unassigned) [Example 4, 6-[4-(1-Amino-ethyl)-4-ethyl-cyclohexyloxy]-7-chloro-2H-isoquinolin-1-one] | >100 | 10 to 100 | >300 |
| CCCC1(C(N)CC)CCC(Oc2cc3cc[nH]c(=O)c3cc2Cl)CC1 (single isomer, unassigned) [Example 5, 6-[4-(1-Amino-propyl)-4-propyl-cyclohexyloxy]-7-chloro-2H-isoquinolin-1-one] | >1000 | ≤ 10 | >1000 |
| CCCC1(C(N)C2CC2)CCC(Oc2cc3cc[nH]c(=O)c3cc2Cl)CC1 (single isomer, unassigned) [Example 6, 6-[4-(Amino-cyclopropyl-methyl)-4-propyl-cyclohexyloxy]-7-chloro-2H-isoquinolin-1-one] | >1000 | ≤ 10 | >1000 |
| CCCC1(C(N)C2CC2)CCC(Oc2cc3cc[nH]c(=O)c3cc2Cl)CC1 (single isomer, unassigned) [Example 7, 6-[4-(Amino-cyclopropyl-methyl)-4-propyl-cyclohexyloxy]-7-chloro-2H-isoquinolin-1-one] | >100 | 10 to 100 | >300 |
| CCC(N)C1(Cc2ccccc2)CCC(Oc2cc3cc[nH]c(=O)c3cc2Cl)CC1 (single isomer, unassigned) [Example 31, 6-[4-(1-Amino-propyl)-4-benzyl-cyclohexyloxy]-7-chloro-2H-isoquinolin-1-one] | >100 | – | >10 |

Reference: patent US8399482B2, “6-substituted isoquinolines and isoquinolinones” (Sanofi, priority 2008, dated 2013)
